Data taken from PubChem BioAssay (NCI).
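96-well plates; 48 h exposure; 5 concentrations. Endpoints by linear interpolation between flanking doses. Not reached: highest tested concentration assigned. TGI marks complete inhibition of growth.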

Columns and labels:
Assay in all cases: NCI tumour cell line growth inhibition, 48 h
[1] = tested on: HOP-62 NSCLC
[2] = tested on: NCI/ADR-RES ovarian
[3] = tested on: MDA-MB-231 breast
[4] = tested on: OVCAR-5 ovarian
[5] = tested on: MOLT-4 leukemia
[6] = tested on: HCT-15 colon
[7] = tested on: U251 CNS
[8] = tested on: UO-31 renal

## C/C=C\C(CC(=O)NCCc1cn(C(=O)OCc2ccccc2)c2ccccc12)CC(=O)OC (stereo not given)
[1]
  TGI: > 100 µM
[2]
  TGI: > 100 µM
[3]
  TGI: > 100 µM
[4]
  TGI: > 100 µM
[5]
  TGI: > 100 µM
[6]
  TGI: > 100 µM
[7]
  TGI: > 100 µM
[8]
  TGI: > 100 µM

## O=C(CSCC(=O)N/N=C/c1cccs1)N/N=C/c1cccs1
[1]
  TGI: > 100 µM
[2]
  TGI: > 100 µM
[3]
  TGI: > 100 µM
[4]
  TGI: > 100 µM
[5]
  TGI: > 100 µM
[6]
  TGI: > 100 µM
[7]
  TGI: > 100 µM
[8]
  TGI: > 100 µM

## CC(C)=CCC[C@@H](C)C1=C(Nc2ccccc2Cl)C(O)=C(C)C(=O)C1=O
[1]
  TGI: 22.7 µM
[2]
  TGI: 27.1 µM
[3]
  TGI: > 100 µM
[4]
  TGI: > 52 µM
[5]
  TGI: 25.1 µM
[6]
  TGI: 36 µM
[7]
  TGI: 38 µM
[8]
  TGI: 17.9 µM

## Cc1nc2c3c(ncn2n1)Oc1c(c(-c2ccccc2)nn1-c1ccccc1)C3c1ccc(Cl)cc1 (stereo not given)
[1]
  TGI: > 100 µM
[2]
  TGI: > 100 µM
[3]
  TGI: > 100 µM
[4]
  TGI: > 100 µM
[5]
  TGI: > 100 µM
[6]
  TGI: > 100 µM
[7]
  TGI: > 100 µM
[8]
  TGI: > 100 µM

## CC1OC2=N[C@@H]1C(=O)N[C@@H](C(C)C)C1=N[C@H](C(=O)N[C@@H](C(C)C)C3=N[C@H](C(=O)N[C@@H](C(C)C)C4=N[C@H](C(=O)N[C@H]2C(C)C)C(C)O4)C(C)O3)C(C)O1 (stereo not given in full)
[1]
  TGI: > 10 µM
[2]
  TGI: > 10 µM
[3]
  TGI: > 10 µM
[4]
  TGI: > 10 µM
[5]
  TGI: > 10 µM
[6]
  TGI: > 10 µM
[7]
  TGI: > 10 µM
[8]
  TGI: > 10 µM

## NC(=S)N/N=C\c1ccc(OCc2cccc(COc3ccc(/C=N/NC(N)=S)cc3)n2)cc1
[1]
  TGI: > 100 µM
[2]
  TGI: > 100 µM
[3]
  TGI: 76 µM
[4]
  TGI: 52.1 µM
[5]
  TGI: > 100 µM
[6]
  TGI: > 100 µM
[7]
  TGI: > 100 µM
[8]
  TGI: > 100 µM

## Cc1ccncc1.F[B-](F)(F)F.[Pt+2].c1ccc(-c2cccc(-c3ccccn3)n2)nc1
[1]
  TGI: > 55.2 µM
[2]
  TGI: 11.7 µM
[3]
  TGI: > 100 µM
[4]
  TGI: 41.4 µM
[5]
  TGI: 39.1 µM
[6]
  TGI: 38.1 µM
[7]
  TGI: > 100 µM
[8]
  TGI: > 27.8 µM

## CC[N+](C)(CC)CCC(O)(c1ccccc1)c1ccccc1
[1]
  TGI: > 100 µM
[2]
  TGI: > 100 µM
[3]
  TGI: > 100 µM
[4]
  TGI: > 100 µM
[5]
  TGI: > 100 µM
[6]
  TGI: > 100 µM
[7]
  TGI: > 100 µM
[8]
  TGI: > 100 µM

## CC(=O)OCC1OC(n2c3c(c(-c4cccc5ccccc45)c(C#N)c2=S)CCCC3)C(OC(C)=O)C(OC(C)=O)C1OC(C)=O (stereo not given)
[1]
  TGI: > 100 µM
[2]
  TGI: > 100 µM
[3]
  TGI: > 100 µM
[4]
  TGI: > 100 µM
[5]
  TGI: > 100 µM
[6]
  TGI: > 100 µM
[7]
  TGI: > 100 µM
[8]
  TGI: 62.2 µM

## COc1cccc(CC(C)NCC(O)c2ccc(O)c(O)c2)c1 (stereo not given)
[1]
  TGI: > 100 µM
[2]
  TGI: > 100 µM
[3]
  TGI: 60.1 µM
[4]
  TGI: 47.4 µM
[5]
  TGI: 51.7 µM
[6]
  TGI: > 100 µM
[7]
  TGI: > 100 µM
[8]
  TGI: > 100 µM

## Cc1ccc(C2=NOC(=O)[C@@H]3CCCC[C@@H]23)cc1
[1]
  TGI: > 100 µM
[2]
  TGI: > 100 µM
[3]
  TGI: > 100 µM
[4]
  TGI: > 100 µM
[5]
  TGI: > 100 µM
[6]
  TGI: > 100 µM
[7]
  TGI: > 100 µM
[8]
  TGI: > 100 µM

## CCOC(=O)C(=[N+]=[N-])C(=O)Nc1nn2nnnc2c2ccccc12
[1]
  TGI: > 100 µM
[2]
  TGI: > 100 µM
[3]
  TGI: > 100 µM
[4]
  TGI: > 100 µM
[5]
  TGI: > 100 µM
[7]
  TGI: > 100 µM
[8]
  TGI: > 100 µM
